Data taken from patent US20050048113A1, “Composition and method for treatment or prevention of oral cavity disorders” (priority 2003, published 2005).

How the values were obtained:
[1] = test system: male participants suffering from gingivitis; test: Loe Silness gingival index (GI) in participants suffering from gingivitis; format: in vivo, human
Description: Twelve male participants (24-42 years old) suffering from gingivitis were divided into 4 groups. Participants of the first group (No.=3) were treated by conventional oral hygiene procedures, including mechanical procedures and usage of mouthwash preparations for 3 months. Participants of the second group (No. =3) were treated by swallowing tablet of Famotidine 40 mg, once daily at bed time, for 3 months. Participants of the third group (No.=3) were treated by sublingual tablet of Famotidine 40 mg, once daily at bed time, for 3 months. Participants of the fourth group (No.=3) were treated by sublingual tablet of Omeprazole 20 mg, once daily at bed time, for 3 months. All participants were screened for dental caries and treated accordingly.
Each participant was examined at recruitment and after then bi-weekly up to 3 months from recruitment (7 examinations for each participant). At each visit gingival index was determined using a standard Loe Silness gingival index (GI) chart, which is accessible at the following website: http://www.medal.org/sheets/ch9/gingival %20index %20Loe %20Silness.xls.
The GI scores of examination No.7 (at 3 months from recruitment) compared to GI scores at examination No.1 (at recruitment), were calculated as mean GI reduction for each group.

[2] = famotidine 40 mg per day, sublingual vs p.o. vs no treatment, 3 weeks each; pH 1, 2, 3 hours after a meal and at wakeup; preliminary results
Description: An ongoing study is now being carried out on healthy young (25-40 years old) volunteers. The oral cavity pH is measured 1, 2, and 3 hours after a meal and at wakeup in the morning. These measurements are done daily for each participant, 3 weeks without treatment, 3 weeks under sublingual famotidine (40 mg per day), and 3 weeks under p.o. famotidine (40 mg per day).

[3] = test system: -person suffering from accelerated cariogenicity and progressive gingivitis
[4] = test system: proton-translocating membrane ATPases of oral streptococci; settings: cited from earlier work
[5] = Famotidine 40 mg per day, tablets swallowed, half year later

NC(N)=Nc1nc(CSCCC(N)=NS(N)(=O)=O)cs1 [Famotidine]
mean GI reduction ([1]; sublingual tablet 40 mg once daily at bed time, 3 months vs recruitment (third group)): 31%
mean GI reduction ([1]; swallowed tablet 40 mg once daily at bed time, 3 months vs recruitment (second group)): 17.1%
rank order of the highest oral cavity pH [2]: Sublingual Famotidine treatment>p.o. Famotidine treatment>no treatment
epigastric symptoms [3, 5]: relieved
symptoms of reflux [3, 5]: persisted
reflux symptoms ([3]; famotidine tablets taken sublingually instead of swallowed): relieved
new caries at twice a year dental follow-ups ([3]; next 5 years under sublingual famotidine treatment): new caries were not detected
gingivitis ([3]; sublingual famotidine, in the following months): improved dramatically

COc1ccc2[nH]c([S+]([O-])Cc3ncc(C)c(OC)c3C)nc2c1 (stereo not shown) [Omeprazole]
mean GI reduction ([1]; sublingual tablet 20 mg once daily at bed time, 3 months vs recruitment (fourth group)): 27.5%

[N-]=[N+]=[N-] [azide]
sensitivity of proton-translocating membrane ATPases to the inhibitor [4]: sensitive

C(=NC1CCCCC1)=NC1CCCCC1 [dicyclohexylcarbodiimide]
sensitivity of proton-translocating membrane ATPases to the inhibitor [4]: sensitive

C[C@@H]1O[C@@H](O[C@H]2C[C@@H](O)[C@]3(CO)[C@H]4[C@H](O)C[C@]5(C)[C@@H](C6=CC(=O)OC6)CC[C@]5(O)[C@@H]4CC[C@]3(O)C2)[C@H](O)[C@H](O)[C@H]1O [ouabain]
sensitivity of proton-translocating membrane ATPases to the inhibitor [4]: insensitive

[O]=[V]([O-])([O-])[O-] [vanadate]
sensitivity of proton-translocating membrane ATPases to the inhibitor [4]: insensitive
